Earlier results as cited in US20090019042A1, “Method Of Screening Compound Regulating The Translation Of Specific mRNA” (Takeda Pharmaceutical Company Limited, priority 2004, published 2009).

Legend:
LysC mRNA = conditions: L-lysine recognised by LysC mRNA
xpt-pbux mRNA = conditions: guanine recognised by xpt-pbux mRNA

| Kd (xpt-pbux mRNA) [nM] | Structure (SMILES) | Kd (LysC mRNA) [nM] |
| --- | --- | --- |
|  | NCCCC[C@H](N)C(=O)O [L-lysine] | 1000 |
| < 5 | Nc1nc2nc[nH]c2c(=O)[nH]1 [guanine] |  |
